Measurements from patent US9192640B2, “Antiviral composition against flavivirus” (University Malaya, priority 2012, dated 2015).
≈ marks a conversion by molar mass, not a printed value.

Assays:
Type in all cases: cell-based
[1] = system: dengue virus type-2 (DENV-2); test: Prophylactic anti-dengue activity, pre-treatment of Vero cells (foci reduction and qRT-PCR)
Protocol: (§1) In order to determine the prophylactic anti-dengue activity of baicalein, different concentrations of baicalein (6.25 μg/ml, 12.50 μg/ml, 25.0 μg/ml, and 50.0 μg/ml) were added to the Vero cell monolayers five hours before adding virus. After five hours of pre-infection treatment, the cells were washed twice with phosphate-buffered saline (PBS). Then, 200 FFU (focus-forming units) of dengue virus type-2 (DENV-2) was inoculated to the cells to produce infected cells. The infected cells were incubated at 37° C. for one hour. Then the infected cells were washed two times with PBS to eliminate the unadsorped viruses. Growth medium (the growing medium is but not limited to Eagle's minimal essential medium; EMEM) was supplemented with 2% fetal bovine serum (FBS), 1 mM non-essential amino acid solution, 1 mM L-glutamine solution, and 1.5% carboxymethyl cellulose (CMC) solution) was added to the infected cells in the microplate. The microplate was incubated at 37° C. for four days. The number of viral foci formed and the viral RNA level were determined. The prophylactic activity of baicalein against DENV-2 was measured by the decrease in the number of viral foci and reduction of viral RNA synthesis. The number of DENV-2 foci was counted using a stereomicroscope and the titer of virus was expressed as FFU. The percentage of foci reduction (RF %) compared against controls was calculated as follows: RF (%)=(C−T)×100/C, where, C is the mean of the number of foci for negative control (without baicalein) and T is the mean of the number of foci in treated wells. Reduction in the number of viral foci was further verified using quantitative RT-PCR (qRT-PCR) which determine the copy number of dengue virus specific RNA. The same procedure was repeated to Vero cells which were treated with only virus suspension without baicalein (non-treated cells) and this served as the untreated control.

[2] = system: dengue virus type-2 (DENV-2); test: Inhibition of DENV-2 attachment to host cells, baicalein added simultaneously with virus
Protocol: as §1
Inhibition of DENV-2 attachment to host cells was evaluated by adding different concentrations (3.12 μg/ml, 6.25 μg/ml, 12.5 μg/ml, 25.0 μg/ml, and 50.0 μg/ml) of baicalein to Vero cells simultaneously with 200 FFU DENV-2. Then, the infected Vero cells were incubated at 37° C. for one hour in the presence of the respective concentration of baicalein. Following after, the infected Vero cells were washed two times using sterile PBS. Growth medium supplemented with 2% fetal bovine serum (FBS), 1 mM non-essential amino acid solution, 1 mM L-glutamine solution, and 1.5% carboxymethyl cellulose (CMC) solution) was added to the infected cells in the microplate. […] The number of viral foci formed and the viral RNA level were determined. The amount of viral RNA synthesis was determined using quantitative real time polymerase chain reaction amplification (qRT-PCR).

[3] = system: dengue virus type-2 (DENV-2); test: Antiviral activity on DENV-2 replication, baicalein added post-infection
Protocol: as §1, with “The same procedure was repeated to Vero cells which were treated with only virus suspension without baicalein (non-treated cells) and this served as the untreated control.” left out
In order to evaluate the antiviral activity of baicalein after virus attachment to cells, virus inoculum consisting of 200 FFU DENV-2 was added to the monolayer Vero cells and the virus was allowed to adsorp to the Vero cells for one hour at a temperature of 37° C. […] Then, the number of viral foci and viral RNA level were measured.

[4] = system: dengue virus type-2 (DENV-2); test: Direct virucidal activity against DENV-2
Protocol: as §1, with “The same procedure was repeated to Vero cells which were treated with only virus suspension without baicalein (non-treated cells) and this served as the untreated control.” left out
In order to determine the direct virucidal activity of baicalein against DENV-2, DENV-2 suspension containing 200 FFU was incubated with different concentrations of baicalein (1.56 μg/ml, 3.12 μg/ml, 6.25 μg/ml, 12.50 μg/ml, 25.0 μg/ml) at 37° C. for two hours to produce a treated viral suspension. […] The number of viral foci formed and the viral RNA level were determined.

[5] = system: Japanese encephalitis virus; test: Antiviral activity on Japanese encephalitis virus replication, baicalein added post-infection; conditions: 50 μg/ml, added post-infection to Vero cells, two days, vs non-treated cells
Protocol: In order to evaluate the antiviral activity of baicalein after virus attachment to cells, virus inoculum consisting of 200 FFU JE was added to the monolayer Vero cells and the virus was allowed to adsorp to the Vero cells for one hour at a temperature of 37° C. Unadsorped viruses were removed by rinsing the Vero cells with sterile PBS for two times. Different concentrations of baicalein (12.5 μg/ml, 25.0 μg/ml, 50.0 μg/ml and 100.0 μg/ml) were mixed with 1.5% CMC containing cell-growth medium supplemented with 2% FBS respectively before incubated at 37° C. for two days. Then, the number of viral foci was determined.

[6] = 50 μg/ml, added after virus adsorption to Vero cells, four days, vs non-treated cells
[7] = 12.5 μg/ml, DENV-2 suspension incubated with baicalein at 37° C. for two hours before infecting Vero cells

O=c1cc(-c2ccccc2)oc2cc(O)c(O)c(O)c12 [baicalein, 5,6,7-Trihydroxyflavone]
reduction in level of dengue virus type-2 RNA production ([1]; 50 μg/ml, Vero cells pre-treated five hours before infection, qRT-PCR, vs non-treated cells): 39.5%±0.8
reduction in number of dengue virus foci formed ([1]; 50 μg/ml, Vero cells pre-treated five hours before infection, vs non-treated cells): ~37%
IC50 ([1]; Dengue virus, DENV2, Vero, read-out: IC50 in pretreatment of cells): 109 µg/mL (≈ 403 µM)
decrease in level of DENV-2 RNA production ([2]; 25 μg/ml, added simultaneously with DENV-2 to Vero cells, qRT-PCR, vs non-treated cells): 90.3%±1.6
reduction in number of dengue virus foci formed ([2]; 25 μg/ml, added simultaneously with DENV-2 to Vero cells, vs non-treated cells): 76.6%
decrease in DENV-2 RNA level at 50 μg/ml compared with 25 μg/ml ([2]; 50 μg/ml, added simultaneously with DENV-2): Higher decrease in RNA level was observed
IC50 ([2]; Dengue virus, DENV2, Vero): 7.14 µg/mL (≈ 26.4 µM)
decrease in level of DENV-2 RNA production [3, 6]: 84.9%±2.15
reduction in number of dengue virus foci formed [3, 6]: 78.3%
IC50 ([3]; Dengue virus, DENV2, Vero): 6.46 µg/mL (≈ 23.9 µM)
decrease in level of DENV-2 RNA production [4, 7]: 99.2%±0.4
reduction in number of dengue virus foci formed [4, 7]: 97.93%
IC50 ([4]; Dengue virus, DENV2, 2 h): 1.55 µg/mL (≈ 5.74 µM)
reduction in number of Japanese encephalitis virus foci formed [5]: > 90%
